The values that follow come from PMC9951321.

In brackets after ≈: the same amount, converted by molar mass. Where a SMILES comes first, the peptide text is derived from it.

Assay [1] deals with E. coli. Briefly: K+ out-diffusion, atomic absorption spectrometry. Particulars: 4 × MIC, 1 h; untreated 13.47 µg mL^−1; n = 3.
The subject of assay [2] is E. coli. In words: PGN integrity assay (susceptibility to lysozyme-mediated lysis). As to conditions: cells grown with 0.625 µmol L^−1 (1/4 × MIC); 1 mg mL^−1 lysozyme, within 20 min incubation, 25 °C.
Assay [3] concerns Escherichia coli ATCC 8739. Briefly: MIC, broth micro-dilution. The class given is cell-based.
Assay [4] has as its system Escherichia coli MDR. In words: MIC, broth micro-dilution. The class given is cell-based. Particulars: for MIC: 24 h; for MIC against E. coli MDR relative to wild-type E. coli strains: fold higher than those of wild-type E. coli strains.
For assay [5], the system named is Salmonella Typhimurium ATCC 14028. In words: MIC, broth micro-dilution. It counts as cell-based. As to conditions: 24 h. For orientation: In broth dilution the organism is exposed to a series of concentrations in liquid medium.
The subject of assay [6] is Klebsiella pneumoniae ATCC 13883. In words: MIC, broth micro-dilution. It counts as cell-based.
The test system of assay [7] is Acinetobacter baumannii ATCC 17978. In words: MIC, broth micro-dilution. It counts as cell-based.
Assay [8] relates to Pseudomonas aeruginosa ATCC 10145. Briefly: MIC, broth micro-dilution. It counts as cell-based.
Assay [9] has as its system Enterobacter cloacae ATCC 13047. In words: MIC, broth micro-dilution. It counts as cell-based.
The subject of assay [10] is Enterococcus faecium ATCC 19434. In words: MIC, broth micro-dilution. The class given is cell-based.
In assay [11] the test system is Staphylococcus aureus ATCC 25923. In words: MIC, broth micro-dilution. The class given is cell-based.
Assay [12] has as its system Staphylococcus aureus MRSA ATCC 43300. Briefly: MIC, broth micro-dilution. It counts as cell-based. Particulars: 24 h.

`CC[C@H](C)[C@H](NC(=O)[C@@H](N)CCCNC(=N)N)C(=O)N[C@@H](CCCCN)C(=O)N[C@H](C(=O)N[C@@H](C)C(=O)N[C@H](C(=O)N[C@@H](Cc1c[nH]c2ccccc12)C(=O)N[C@@H](CCCNC(=N)N)C(=O)N[C@@H](CC(C)C)C(=O)N[C@@H](C)C(=O)N[C@@H](CC(C)C)C(=O)N[C@@H](CCCNC(=N)N)C(=O)N[C@@H](Cc1c[nH]c2ccccc12)C(=O)N[C@@H](CC(C)C)C(=O)N[C@@H](CCCCN)C(=O)N[C@@H](CC(C)C)C(=O)O)[C@@H](C)O)[C@@H](C)O` [KTA] (H-RIKTATWRLALRWLKL-OH): the “Extracellular K^+ content” value in [1] was determined as 18.92 µg/mL. The “Reduction of OD600 nm of treated cells with lysozyme” value in [2] was 17.2%.

Regarding `CC[C@H](C)[C@H](NC(=O)[C@@H](N)CCCNC(=N)N)C(=O)N[C@@H](CCCCN)C(=O)N[C@H](C(=O)N[C@@H](CCCNC(=N)N)C(=O)N[C@H](C(=O)N[C@@H](Cc1c[nH]c2ccccc12)C(=O)N[C@@H](CCCNC(=N)N)C(=O)N[C@@H](CC(C)C)C(=O)N[C@@H](C)C(=O)N[C@@H](CC(C)C)C(=O)N[C@@H](CCCNC(=N)N)C(=O)N[C@@H](Cc1c[nH]c2ccccc12)C(=O)N[C@@H](CC(C)C)C(=O)N[C@@H](CCCCN)C(=O)N[C@@H](CC(C)C)C(=O)O)[C@@H](C)O)[C@@H](C)O` [KTR] (H-RIKTRTWRLALRWLKL-OH), in assay [1], the “Extracellular K^+ content” value amounted to 21.53 µg/mL.

The MIC is the lowest concentration found to suppress growth. Higher therefore signals a need for much substance. For the compound `NC[C@H]1O[C@H](O[C@H]2[C@H](O)[C@@H](O[C@H]3O[C@H](CO)[C@@H](O)[C@H](N)[C@H]3O)[C@H](N)C[C@@H]2N)[C@H](N)C[C@@H]1O` [Tob, tobramycin], the minimum inhibitory concentration (MIC) in assay [3] (Escherichia coli, ATCC8739, 24 h) is 4.3 µM (≈ 2.01 µg/mL); in [4] (Escherichia coli) it was 548 µM (≈ 256 µg/mL); in assay [5] (Salmonella enterica), 17.1 µM (≈ 7.99 µg/mL); in assay [6] (Klebsiella pneumoniae, ATCC13883, 24 h), 2.1 µM (≈ 0.982 µg/mL); in assay [7] (Acinetobacter baumannii, ATCC17978, 24 h), 2.1 µM (≈ 0.982 µg/mL); in assay [8] (Pseudomonas aeruginosa, ATCC10145, 24 h), 4.3 µM (≈ 2.01 µg/mL). Also, the minimal inhibitory concentration (MIC) in [9] (Enterobacter cloacae, ATCC13047, 24 h) amounted to 2.1 µM (≈ 0.982 µg/mL); in [10] (Enterococcus faecium, ATCC19434, 24 h), 274 µM (≈ 128 µg/mL); in assay [11] (Staphylococcus aureus, ATCC25923, 24 h), 17.1 µM (≈ 7.99 µg/mL); in assay [12] (Staphylococcus aureus) it was 548 µM (≈ 256 µg/mL). Further, the “MIC against E. coli MDR relative to wild-type E. coli strains” value in assay [4] is “at least 128 fold”.

For the compound colistin, the MIC in assay [3] (Escherichia coli ATCC 8739, broth micro-dilution in MHB, 37 °C, 24 h, triplicate) was determined as 3.2 µM; in assay [4] (Escherichia coli MDR, multi-drug resistant clinical isolate, broth micro-dilution in MHB, 37 °C, triplicate), 102.1 µM; in [5] (Salmonella Typhimurium ATCC 14028, broth micro-dilution in MHB, 37 °C, triplicate) it was 6.4 µM; in assay [6] (Klebsiella pneumoniae ATCC 13883, broth micro-dilution in MHB, 37 °C, 24 h, triplicate), 12.8 µM; in assay [7] (Acinetobacter baumannii ATCC 17978, broth micro-dilution in MHB, 37 °C, 24 h, triplicate), 1.6 µM; in [8] (Pseudomonas aeruginosa ATCC 10145, broth micro-dilution in MHB, 37 °C, 24 h, triplicate) it was 6.4 µM. Also, the minimum inhibitory concentration (MIC) in assay [9] (Enterobacter cloacae ATCC 13047, broth micro-dilution in MHB, 37 °C, 24 h, triplicate) was 204.2 µM; in assay [10] (Enterococcus faecium ATCC 19434, broth micro-dilution in MHB, 37 °C, 24 h, triplicate), 204.2 µM; in [11] (Staphylococcus aureus ATCC 25923, broth micro-dilution in MHB, 37 °C, 24 h, triplicate), 12.8 µM; in [12] (Staphylococcus aureus MRSA ATCC 43300, broth micro-dilution in MHB, 37 °C, triplicate), 51.1 µM. Further, the “MIC against E. coli MDR relative to wild-type E. coli strains” value in [4] is given as at least 32 fold.
